Values joined by “and” are separate entries in the source; they are usually repeats but may differ in a detail not shown here. Equal values may be shown once. Read-outs that look alike come from different tables or passages of the source.
Experiments:
KRAS(G12C/Y96D) [1] = target: T1, KRAS(G12C/Y96D) (Homo sapiens, UniProt P01116, G12C/Y96D); assay: biochemical; assay type: binding; conditions: 20 nM KRAS(G12C/Y96D), 1 M urea, 120 min at room temperature; read-out: Chemical stability IC50
Method: (§1) Nucleotide exchange inhibition was monitored in an assay with 10 nM KRAS and 5 nM SOS^cat, utilizing Eu^3+-GTP TRL-signal protection upon KRAS binding according to QRET principle. […] (d) Overview of the assay results presented in (a–c) and Figs. S17, S19–S20.
(§2) In these assays, no external protein (SOS^cat) is used and only KRAS and inhibitors are present. First, we conducted a chemical stability assay by utilizing the FRET-Probe technique. In this system, time dependent KRAS (20 nM) denaturation is monitored in 1 M urea solution after KRAS preincubation with varying inhibitor concentration. […] In this assay, we observed an exceptionally high stability increase with both inhibitors (Fig. 5d; Fig. S17).
(§3) FRET-Probe chemical stability assays[69] were performed in triplicates in an assay buffer containing 10 mM HEPES (pH 7.5), 10 mM NaCl, and 0.01% (v/v) Brij-30 (with or without 0.2 mM MgCl2) and destabilizing detection buffer with 10 mM HEPES (pH 7.5), 1 M urea, and 0.01% (v/v) Brij-30. […] Thereafter, 16 μL of the 1 × FRET-Probe was added in destabilizing detection buffer and TR-FRET signal was monitored multiple times during 120 min incubation (parameters as in thermal stability assay). All concentrations are informed in a final 20 μL reaction volume in white 384-well low volume plates (Corning, USA). IC50 values were obtained by blotting the signals obtained with different inhibitor concentrations at the selected time point against the inhibitor concentration and using standard sigmoidal fitting functions from Origin 2016 software.

KRAS(G12C) [2] = target: T2, KRAS(G12C) (Homo sapiens, UniProt P01116, G12C); assay: biochemical; assay type: binding; conditions: 20 nM KRAS(G12C), 1 M urea, 120 min at room temperature; read-out: Chemical stability IC50
Method: as §1, §2, §3

KRAS(G12C/H95L) [3] = target: T3, KRAS(G12C/H95L) (Homo sapiens, UniProt P01116, G12C/H95L); assay: biochemical; assay type: binding; conditions: 20 nM KRAS(G12C/H95L), 1 M urea, 120 min at room temperature; read-out: Chemical stability IC50
Method: as §1, §2, §3

KRAS(G12C/Y96D) [4] = target: T1, KRAS(G12C/Y96D); assay: biochemical; conditions: 10 nM KRAS(G12C/Y96D), 5 nM SOScat, 15 min preincubation; read-out: Nucleotide exchange IC50
Description: (§4) First, we performed a traditional nucleotide exchange assay using a single-label quenching resonance energy transfer (QRET) principle[63]–[65] and non-labeled full-length KRAS(G12C), (G12C/H95L), and (G12C/Y96D). The selection of the two double mutants was based on the observed interactions in the MD simulations (Figs. 2, 3), and the fact that acquired resistance with SII-P inhibitors is associated with these mutations, as clinically observed for sotorasib and adagrasib[66]–[68].
as §1
(§5) Nucleotide exchange assays using the QRET principle[63]–[65],[68] were performed in assay buffer containing 20 mM HEPES (pH 7.5) 1 mM MgCl2, 10 mM NaCl, 0.01% (v/v) Triton X-100. […] Thereafter, 6 μL of detection solution (3.5 μM MT2 and 10 nM Eu^3+-GTP) was added and reaction was initiated with 5 nM SOS^cat added in 3 μL volume. TRL-signals were monitored using Tecan Spark 20 M from Tecan Life Sciences (Männedorf, Switzerland) by using 340 and 620 nm excitation and emission wavelengths and 800 and 400 μs delay and decay time, respectively. All concentrations are informed in a final 15 μL reaction volume in white 384-well low volume plates (Corning, USA). IC50 values were obtained using standard sigmoidal fitting functions from Origin 2016 software (Origin Lab, Northampton, MA).

KRAS(G12C/H95L) [5] = target: T3, KRAS(G12C/H95L); assay: biochemical; conditions: 10 nM KRAS(G12C/H95L), 5 nM SOScat, 15 min preincubation; read-out: Nucleotide exchange IC50
Description: as §4, §1, §5

KRAS(WT) [6] = target: T4, KRAS(WT) (Homo sapiens, UniProt P01116); assay: biochemical; conditions: 10 nM KRAS(WT), 5 nM SOScat, 15 min preincubation; read-out: Nucleotide exchange IC50
Method: Our results imply that both inhibitors are highly dependent on their covalent interaction to G12C for efficient and potent RAS inhibition.
as §5
with 10 nM KRAS(WT) and 5 nM SOScat, utilizing Eu3+-GTP (10 nM) TRL-signal protection upon
KRAS binding according to QRET principle.
(§6) (1 picture or pasted object on this page, not shown here)

KRAS(WT) [7] = target: T4, KRAS(WT); assay: FRET-Probe thermal stability assay; assay type: binding; design: full-length KRAS(G12C), KRAS(G12C/H95L), KRAS(G12C/Y96D) and KRAS(WT); host or cells: E. coli
Method: (§7) FRET-Probe thermal stability assays[69] were conducted in triplicates in an assay buffer containing 10 mM HEPES (pH 7.5), 10 mM NaCl, 0.5 mM MgCl2, and 0.01% (v/v) Brij-30. Assay was also performed in an assay buffer without MgCl2. […] Thereafter, 8 μL of the 1 × FRET-Probe was added, and signals were monitored using step-by-step protocol by heating from 34–96 °C using 2 °C steps and heating the sample 1.5 min at each step prior measurement using 340 and 665 nm excitation and emission wavelengths and 50 and 200 μs delay and decay time, respectively. Thermal heating was performed with a PTC-100 Programmable Thermal Controller (MJ Research, Inc., Watertown, MA). All concentrations are informed in a final 20 μL reaction volume in white 96-well PCR-plate (BioRad, USA). Tm values were obtained using standard sigmoidal fitting functions from Origin 2016 software. […]
TR-FRET signals from the triplicate reactions were monitored for every 2 °C, up to 96 °C. Normalized thermal curves with or without MgCl2 (0.2 mM) are shown in A and C, and the same data is presented as TR-FRET signals in B and D, respectively.
as §6

KRAS(G12C) [8] = target: T2, KRAS(G12C); assay: FRET-Probe thermal stability assay; assay type: binding
Method: as §2, §7
heating with the FRET-Probe. KRAS(G12C) was preincubated 15 min prior the thermal ramping, in […]
which the TR-FRET signals from the triplicate reactions were monitored for every 2 °C, up to 96 °C.
Normalized thermal curves with or without MgCl2 (0.2 mM) are shown in A and C, and the same data […]
is presented as TR-FRET signals in B and D, respectively.
as §6

KRAS(G12C) [9] = target: T2, KRAS(G12C); assay: biochemical; conditions: 10 nM KRAS(G12C), 5 nM SOScat, 15 min preincubation; read-out: Nucleotide exchange IC50
HRAS(G12C) = HRAS(G12C) (Homo sapiens, UniProt P01112, G12C); assay: biochemical; conditions: 10 nM HRAS(G12C), 5 nM SOScat, 15 min preincubation; read-out: Nucleotide exchange IC50
Method: as §1
(§8) SII-P inhibitor activities can differ among RAS isoforms (KRAS/HRAS/NRAS). These isoforms differ only in position 95 in the SII-P (Fig. S18).
as §5

NRAS(G12C) = NRAS(G12C) (Homo sapiens, UniProt P01111, G12C); assay: biochemical; conditions: 10 nM NRAS(G12C), 5 nM SOScat, 15 min preincubation; read-out: Nucleotide exchange IC50
Method: as §1, §8, §5

Chain of HRAS(G12C) (P01112 1-169 G12C): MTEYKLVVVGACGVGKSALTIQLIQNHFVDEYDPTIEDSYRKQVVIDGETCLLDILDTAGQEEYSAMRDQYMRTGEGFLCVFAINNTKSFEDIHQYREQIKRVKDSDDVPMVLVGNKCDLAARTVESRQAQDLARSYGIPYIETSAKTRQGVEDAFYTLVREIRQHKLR
Chain of NRAS(G12C) (P01111 1-169 G12C): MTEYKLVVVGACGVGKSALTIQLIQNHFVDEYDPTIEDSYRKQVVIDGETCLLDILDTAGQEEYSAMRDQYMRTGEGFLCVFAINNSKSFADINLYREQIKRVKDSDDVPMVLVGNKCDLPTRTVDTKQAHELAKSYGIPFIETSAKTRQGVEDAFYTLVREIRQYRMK

Compound | IC50 (KRAS(G12C/Y96D) [1]) [nM] | IC50 (KRAS(G12C) [2]) | IC50 (KRAS(G12C/H95L) [3]) | IC50 (KRAS(G12C/Y96D) [4]) [nM] | IC50 (KRAS(G12C/H95L) [5]) | IC50 (KRAS(WT) [6]) [nM] | ΔTm at 10 µM (KRAS(WT) [7]; read-out: Thermal stability ΔTm, 20 nM KRAS(WT), 10,000 nM inhibitor, first value (footnote f), one of the with / without Mg2+ conditions) [°C] | ΔTm at 10 µM (KRAS(WT) [7]; read-out: Thermal stability ΔTm, 20 nM KRAS(WT), 10,000 nM inhibitor, second value (footnote g), the other of the with / without Mg2+ conditions) [°C] | ΔTm at 0.05 µM (KRAS(G12C) [8]; read-out: Thermal stability ΔTm, 20 nM KRAS(G12C), 50 nM inhibitor, first value (footnote c), one of the with / without Mg2+ conditions) [°C] | ΔTm at 0.05 µM (KRAS(G12C) [8]; read-out: Thermal stability ΔTm, 20 nM KRAS(G12C), 50 nM inhibitor, second value (footnote d), the other of the with / without Mg2+ conditions) [°C] | IC50 (KRAS(G12C) [9]) [nM] | IC50 (HRAS(G12C)) [nM] | IC50 (NRAS(G12C)) [nM] | ΔTm at 10 µM (KRAS(WT) [7]; 20 nM KRAS(WT), 10,000 nM inhibitor, first value (footnote f), one of the with / without Mg2+ conditions, read-out: Thermal stability ΔTm) [°C] | ΔTm at 10 µM (KRAS(WT) [7]; 20 nM KRAS(WT), 10,000 nM inhibitor, second value (footnote g), the other of the with / without Mg2+ conditions, read-out: Thermal stability ΔTm) [°C] | ΔTm at 0.05 µM (KRAS(G12C) [8]; 20 nM KRAS(G12C), 50 nM inhibitor, first value (footnote c), one of the with / without Mg2+ conditions, read-out: Thermal stability ΔTm) [°C] | ΔTm at 0.05 µM (KRAS(G12C) [8]; 20 nM KRAS(G12C), 50 nM inhibitor, second value (footnote d), the other of the with / without Mg2+ conditions, read-out: Thermal stability ΔTm) [°C]
C=CC(=O)N1CCN2C(=O)c3cc(F)c(-c4ccc(F)c5sc(N)c(C#N)c45)c(Cl)c3OCC[C@H]2C1 [LY3537982, olomorasib] | 1.6 ± 0.1 | 0.368 nM and 0.37 nM | 0.345 nM and 0.35 nM | 2.8 ± 0.8 | 0.121 nM and 0.12 nM | 343 ± 23 | 5.1 | 4.9 | 20.5 | 30.4 | 0.956 ± 0.3 | 0.48 ± 0.042 | 0.16 ± 0.013 | – | – | – | –
C=CC(=O)N1CCN(c2nc(OC[C@@H]3CCCN3C)nc3c(F)c(-c4nc(N)cc(C)c4C(F)(F)F)c(Cl)cc23)[C@@H](C)C1 [GDC-6036, divarasib] | 106 ± 6 | 5.9 ± 0.9 nM | 15 ± 3.4 nM | 229 ± 59 | 12 ± 3 nM | 291 ± 23 | – | – | – | – | – | 32.9 ± 2.2 | 29.8 ± 2.35 | 5.2 | 5.5 | 23.7 | 32.5
